In US20260216182A1, “PYRIDAZINE NLRP3 INHIBITOR COMPOUND, PHARMACEUTICAL COMPOSITION, AND PREPARATION METHOD THEREFOR AND USE THEREOF” (CHANGCHUN GENESCIENCE PHARMACEUTICAL CO., LTD., priority 2022, published 2026):

System: IL-1β
Test: MSU-induced rat air pouch model, IL-1β in exudate
Type: in vivo, SD rats
Settings: FIG. 2
Description: Test Example 4 MSU-Induced Rat Air Pouch Model Test
Male SD rats were used in this experiment. After an adaptation period, a dorsal air pouch model was established. On the first, fourth and seventh days of the molding, 20 ml of sterile air was injected subcutaneously into the back of the rat with an injection needle to maintain the inflation of the air pouch. On the eighth day, different doses of the compound or vehicle control were administered by oral gavage. 25 mg of sodium urate suspension was injected into the dorsal air pouch, and 5 h later, the air pouch exudate was collected. The exudate was centrifuged at 1500 rpm for 20 min, and the supernatant was collected and the IL-Iβ production was detected by ELISA (R&D, Ra1 IL-1β kit).

## CC#Cc1ccc2c(-c3ccc(Cl)cc3O)nnc(NC[C@H](O)CO)c2c1 [Compound 062, (S)-3-((4-(4-chloro-2-hydroxyphenyl)-7-(prop-1-yn-1-yl)phthalazin-1-yl)amino) propan-1,2-diol]
  effect on IL-1β compared with colchicine and tofacitinib: better than that of colchicine and tofacitinib
Oral gavage, exudate 5 h after MSU
  production of IL-1β in the air pouch: significantly inhibited the production of IL-1β in the air pouch
